Measured values as given in PubChem BioAssay AID1845204 (Molecular Pharmacology Branch, DTP, NCI, 2023).
pIC50: −log10 of the molar value.

System: HSSY-II tumor spheroid viability
Assay: Anticancer human tumor HSSY-II cell line growth inhibition;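 also: spheroids exposed to compounds for seven days before reading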;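 as to viability, T/C: percent of DMSO vehicle control viability so 100% = untreated level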
Conditions: spheroids with HUVEC and MSC; for pIC50: curve of first compound; for viability, T/C: stronger effect = lower value
From the text: Multicellular complex tumor spheroid response to DNA repair inhibitors in combination with DNA-damaging drugs
This study explores the anticancer activities of DNA-damaging drugs and inhibitors of DNA damage repair, both as single agents and in combinations. Complex tumor spheroids comprised of malignant cells, endothelial cells and mesenchymal stem cells served as an in vitro model for human solid tumors. This model system incorporates physiologically relevant features and patient-derived or established malignant cell lines with clinically relevant genetic alterations from many tumor types. Twenty-six patient-derived or established malignant cell lines were evaluated representing sarcoma, melanoma, small cell lung cancer (SCLC), non-small cell lung cancer (NSCLC), as well as bladder, ovarian and pancreatic cancers. The concentration ranges selected for each drug and investigational agent were based upon clinically achievable concentrations if the clinical Cmax of the agent was known.
Compounds. The drugs and compounds olaparib (NSC753686), talazoparib (NSC767125), berzosertib (NSC777718), elimusertib (NSC800525), nedisertib (NSC802822), VX-984 (NSC792969), AZD-1390 (NSC803789), temozolomide (NSC362856), topotecan (NSC609699), trabectedin (NSC813783), staurosporine (NSC755774), and gemcitabine (NSC613327) were obtained from the National Cancer Institute (NCI) Developmental Therapeutics Program Chemical Repository. The FDA-approved anticancer drug set is available from the Developmental Therapeutics Program at https://dtp.cancer.gov/organization/dscb/obtaining/available_plates.htm. […] The stock solutions were prepared in dimethyl sulfoxide (DMSO, Sigma-Aldrich, St. Louis, MO, cat. D2650) at 400-fold the tested concentration and stored at -70 degrees C. Prior to their use, the stock solutions were diluted in fresh medium and the final DMSO concentration in the assay was 0.25% (v/v). All drugs and investigational agents were tested over a range starting from a high concentration at or near the clinical Cmax and decreasing in half-log increments. If the clinical Cmax for an agent had not been determined, the highest concentration tested was 10 microM.
Cell Lines. The patient-derived cancer cell (PDC) lines: 156681-154-R-J1-PDC, 283228-195-R-J1-PDC, 287954-098-R-J1-PDC, 292921-168-R-J2-PDC, 349418-098-R-PDC, 425362-245-T-J1-PDC, 556581-035-R-J1-PDC, and BL0293-F563-PDC were received from the NCI Patient-Derived Models Repository (PDMR, https://pdmr.cancer.gov). The established cell lines HS-SY-2 (RRID:CVCL_8719), MPNST, and SYO-1 (RRID:CVCL_7146) were obtained from the Sloan Kettering Institute. The alveolar soft parts sarcoma cell line ASPS-1 (RRID:CVCL_S738) was established at the NCI and grown from internal seed stocks. The following established cell lines were purchased from the American Type Culture Collection (ATCC, Manassas, VA): G-401 (ATCC, cat. CRL-1441, RRID:CVCL_0270), SW982 (ATCC, cat. HTB-93, RRID:CVCL_1734), VA-ES-BJ (ATCC, cat. CRL-2138, RRID:CVCL_1785), NCI-H719 (ATCC, cat. CRL-5837, RRID:CVCL_1582), NCI-H196 (ATCC, cat. CRL-5823, RRID:CVCL_1509), NCI-H841 (ATCC, cat. CRL-5845, RRID:CVCL_1595), NCI-H1618 (ATCC, cat. CRL-5879, RRID:CVCL_1480), NCI-H1876 (ATCC, cat. CRL-5902, RRID:CVCL_1503), DMS 114 (ATCC, cat. CRL-2066; RRID:CVCL_1174), NCI-H211 (ATCC, cat. CRL-5824; RRID:CVCL_1529), and SW 1271 (ATCC, cat. CRL-2177, RRID:CVCL_1716). The small cell lung cancer cell line COR-L88 was purchased from Sigma-Aldrich (cat. 92031917-1VL, RRID:CVCL_1141). The non-small cell lung cancer cell lines NCI-H226 (RRID:CVCL_1544) and NCI-H322M (RRID:CVCL_1557) were established at the NCI and grown from internal seed stocks. Pooled donor human umbilical vein endothelial cells (HUVEC, Lonza, cat. CC-2519) and human mesenchymal stem cells (hMSC, Lonza, cat. PT-2501) were purchased from Lonza (Walkersville, MD).
Cell Culture. All cells were maintained in an incubator at 37 degrees C and 5% CO2 with 95% humidity. […]

## Cc1cc(C)c(CNC(=O)c2cc(-c3ccc(CN4CCOCC4)cc3)cc3c2cnn3C2CCCC2)c(=O)[nH]1 + CC[C@@]1(O)C(=O)OCc2c1cc1n(c2=O)Cc2cc3c(CN(C)C)c(O)ccc3nc2-1
Second compound 0.003 µM
  pIC50: < 5.00
Second compound 0.00949 µM
  pIC50: > 7.50
Second compound 0.03 µM
  pIC50: > 7.50
Second compound 0.0949 µM
  pIC50: > 7.50
Second compound 0.3 µM
  pIC50: > 7.50
Second compound 0.003 µM, first compound 0.0316 µM
  viability, T/C: 79.2%
Second compound 0.003 µM, first compound 0.1 µM
  viability, T/C: 81%
Second compound 0.003 µM, first compound 0.316 µM
  viability, T/C: 81.3%
Second compound 0.003 µM, first compound 1 µM
  viability, T/C: 81.9%
Second compound 0.003 µM, first compound 3.16 µM
  viability, T/C: 79.1%
Second compound 0.003 µM, first compound 10 µM
  viability, T/C: 64%
Second compound 0.00949 µM, first compound 0.0316 µM
  viability, T/C: 39.4%
Second compound 0.00949 µM, first compound 0.1 µM
  viability, T/C: 40.1%
Second compound 0.00949 µM, first compound 0.316 µM
  viability, T/C: 42.9%
Second compound 0.00949 µM, first compound 1 µM
  viability, T/C: 47.4%
Second compound 0.00949 µM, first compound 3.16 µM
  viability, T/C: 38%
Second compound 0.00949 µM, first compound 10 µM
  viability, T/C: 49.7%
Second compound 0.03 µM, first compound 0.0316 µM
  viability, T/C: 6.06%
Second compound 0.03 µM, first compound 0.1 µM
  viability, T/C: 7.28%
Second compound 0.03 µM, first compound 0.316 µM
  viability, T/C: 7.77%
Second compound 0.03 µM, first compound 1 µM
  viability, T/C: 9.15%
Second compound 0.03 µM, first compound 3.16 µM
  viability, T/C: 9.78%
Second compound 0.03 µM, first compound 10 µM
  viability, T/C: 11.9%
Second compound 0.0949 µM, first compound 0.0316 µM
  viability, T/C: 6.68%
Second compound 0.0949 µM, first compound 0.1 µM
  viability, T/C: 11.9%
Second compound 0.0949 µM, first compound 0.316 µM
  viability, T/C: 7.28%
Second compound 0.0949 µM, first compound 1 µM
  viability, T/C: 7.31%
Second compound 0.0949 µM, first compound 3.16 µM
  viability, T/C: 8.02%
Second compound 0.0949 µM, first compound 10 µM
  viability, T/C: 9.19%
Second compound 0.3 µM, first compound 0.0316 µM
  viability, T/C: 4.56%
Second compound 0.3 µM, first compound 0.1 µM
  viability, T/C: 4.19%
Second compound 0.3 µM, first compound 0.316 µM
  viability, T/C: 4.75%
Second compound 0.3 µM, first compound 1 µM
  viability, T/C: 5.11%
Second compound 0.3 µM, first compound 3.16 µM
  viability, T/C: 6.37%
Second compound 0.3 µM, first compound 10 µM
  viability, T/C: 7.28%

## Cc1sc2c(c1C)C(c1ccc(Cl)cc1)=NC(CC(=O)Nc1ccc(O)cc1)c1nnc(C)n1-2 (stereo not given) + CC[C@@]1(O)C(=O)OCc2c1cc1n(c2=O)Cc2cc3c(CN(C)C)c(O)ccc3nc2-1
Second compound 0.003 µM
  pIC50: 7.04
Second compound 0.00949 µM
  pIC50: > 8.02
Second compound 0.03 µM
  pIC50: > 8.02
Second compound 0.0949 µM
  pIC50: > 8.02
Second compound 0.3 µM
  pIC50: > 8.02
Second compound 0.003 µM, first compound 0.00949 µM
  viability, T/C: 78.6%
Second compound 0.003 µM, first compound 0.03 µM
  viability, T/C: 70.5%
Second compound 0.003 µM, first compound 0.0949 µM
  viability, T/C: 49.2%
Second compound 0.003 µM, first compound 0.3 µM
  viability, T/C: 23.5%
Second compound 0.003 µM, first compound 0.949 µM
  viability, T/C: 9.78%
Second compound 0.003 µM, first compound 3 µM
  viability, T/C: 7.01%
Second compound 0.00949 µM, first compound 0.00949 µM
  viability, T/C: 37.7%
Second compound 0.00949 µM, first compound 0.03 µM
  viability, T/C: 35.2%
Second compound 0.00949 µM, first compound 0.0949 µM
  viability, T/C: 21.8%
Second compound 0.00949 µM, first compound 0.3 µM
  viability, T/C: 15.4%
Second compound 0.00949 µM, first compound 0.949 µM
  viability, T/C: 8.01%
Second compound 0.00949 µM, first compound 3 µM
  viability, T/C: 4.79%
Second compound 0.03 µM, first compound 0.00949 µM
  viability, T/C: 7.22%
Second compound 0.03 µM, first compound 0.03 µM
  viability, T/C: 6.32%
Second compound 0.03 µM, first compound 0.0949 µM
  viability, T/C: 6.41%
Second compound 0.03 µM, first compound 0.3 µM
  viability, T/C: 5.13%
Second compound 0.03 µM, first compound 0.949 µM
  viability, T/C: 2.41%
Second compound 0.03 µM, first compound 3 µM
  viability, T/C: 2.5%
Second compound 0.0949 µM, first compound 0.00949 µM
  viability, T/C: 5.51%
Second compound 0.0949 µM, first compound 0.03 µM
  viability, T/C: 5.61%
Second compound 0.0949 µM, first compound 0.0949 µM
  viability, T/C: 5.13%
Second compound 0.0949 µM, first compound 0.3 µM
  viability, T/C: 4.3%
Second compound 0.0949 µM, first compound 0.949 µM
  viability, T/C: 2.91%
Second compound 0.0949 µM, first compound 3 µM
  viability, T/C: 2.35%
Second compound 0.3 µM, first compound 0.00949 µM
  viability, T/C: 4.66%
Second compound 0.3 µM, first compound 0.03 µM
  viability, T/C: 4.16%
Second compound 0.3 µM, first compound 0.0949 µM
  viability, T/C: 4.31%
Second compound 0.3 µM, first compound 0.3 µM
  viability, T/C: 3.08%
Second compound 0.3 µM, first compound 0.949 µM
  viability, T/C: 1.91%
Second compound 0.3 µM, first compound 3 µM
  viability, T/C: 0.64%
